According to US20210128609A1, “ONCOLOGY TREATMENTS USING ZINC AGENTS” (XYLONIX IP HOLDINGS PTE. LTD., priority 2018, published 2021):

Assays:
JJN-3 = assay: CellTiter-Glo cell viability, JJN-3; assay type: cell-based
Procedure: (§1) The 50% inhibitory concentration (IC50) was determined in the cancer cell lines using CellTiter-Glo luminescent cell viability assay after incubation with different concentrations of active agents. Each cell line was treated with active Zn(II) agent, a standard chemotherapy drug as reference control, and culture medium as vehicle control. Cell Lines. All cell lines were cultured in media supplemented with 10-15% FBS, at a temperature of 37° C., 5% CO2, and 95% humidity. The reference control drug for all cell lines was cisplatin, to be used for genomic analysis. The cell lines tested, the tissue of origin are shown below in Table 1: Procedure for Determining Half Maximal Inhibition Concentration IC50 • 1. Harvested cells during the logarithmic growth period and count cell number using Count-star. • 2. Adjusted cell concentrations to 4.44×10^4 cells/mL with respective culture medium. • 3. Added 90 μL cell suspensions to two 96-well plates (plates A and B) with the final cell density of 4×10^3 cells/well. (cell concentration was adjusted according to the data base or density optimization assay.) • 4a. Next day: For the plates of TO reading: • 1) Added 10 μL culture medium to each well of plate A for TO reading. • 2) Equilibrated the plate and its content at RT for approximately 30 min. • 3) Added 50 μL CellTiter-Glo reagent to each well. • 4) Mixed content for 5 min on an orbital shaker to induce cell lysis. • 5) Allowed the plate to incubate at RT for 20 min to stabilize luminescent signal. • 6) Recorded luminescence (TO) using EnVision Multi Label Reader. • 4b. For the plates of test reading: • 1) Prepared 10× solution of Zn(II) agent test article. […] The formula for calculating surviving rate is shown below and the absolute IC50 (EC50) was calculated according to the dose-response curve generated by GraphPad Prism 5.0. • 12) The surviving rate (%)=(LumTest article−LumMedium control)/(LumNon-treated−LumMedium control)×100%.

SK-OV-3 = assay: CellTiter-Glo cell viability, SK-OV-3; assay type: cell-based
Procedure: The 50% inhibitory concentration (IC50) was determined in the cancer cell lines using CellTiter-Glo luminescent cell viability assay after incubation with different concentrations of active agents. Each cell line was treated with active Zn(II) agent, a standard chemotherapy drug as reference control, and culture medium as vehicle control. Cell Lines. All cell lines were cultured in media supplemented with 10-15% FBS, at a temperature of 37° C., 5% CO2, and 95% humidity. The reference control drug for all cell lines was cisplatin, to be used for genomic analysis. The cell lines tested, the tissue of origin are shown below in Table 1: Procedure for Determining Half Maximal Inhibition Concentration IC50 • 1. Harvested cells during the logarithmic growth period and count cell number using Count-star. • 2. Adjusted cell concentrations to 4.44×10^4 cells/mL with respective culture medium. • 3. Added 90 μL cell suspensions to two 96-well plates (plates A and B) with the final cell density of 4×10^3 cells/well. (cell concentration was adjusted according to the data base or density optimization assay.) • 4a. […]

HCT-116 = assay: CellTiter-Glo cell viability, HCT-116; assay type: cell-based
Procedure: as §1

KARPAS-422 = assay: CellTiter-Glo cell viability, KARPAS-422; assay type: cell-based
Procedure: as §1

DU4475 = assay: CellTiter-Glo cell viability, DU4475; assay type: cell-based
Procedure: as §1

PANC-1 = assay: CellTiter-Glo cell viability, PANC-1; assay type: cell-based
Procedure: as §1

MES-SA/DX5 = assay: CellTiter-Glo cell viability, MES-SA/DX5; assay type: cell-based
Procedure: as §1

CA46 = assay: CellTiter-Glo cell viability, CA46; assay type: cell-based
Procedure: as §1

OVCAR-3 = assay: CellTiter-Glo cell viability, OVCAR-3; assay type: cell-based
Procedure: as §1

Daudi = assay: CellTiter-Glo cell viability, Daudi; assay type: cell-based
Procedure: as §1

50 cancer cell lines = assay: Genetic instability mutation analysis of 50 cell line IC50 distribution
From the text: Following the 50 cell line screening tests (OmniScreen™) described in Example 6, each cell line was catalogued (yes or no) for the presence of mutations in the following genes by consulting the OncoExpress™ database (Crown Biosciences Inc., Santa Clara, data accession date 18 May 2018˜30 May 2018). • MLH1 (part of the deficient mismatch repair—dMMR-mutations group) • MSH2 (part of the deficient mismatch repair—dMMR-mutations group) • PMS2 (part of the deficient mismatch repair—dMMR-mutations group) • PARP1 • BRCA1 (part of the BRCA1/BRCA2 mutations group) • BRCA2 (part of the BRCA1/BRCA2 mutations group) • TP53
The integrated data were then analyzed using Excel® software (Microsoft, Seattle). Briefly, the sorting algorithm of the Excel® software was used in grouping of the cell lines carrying certain mutations, and in further analysis of the IC50 distribution in each group.
The IC50 distributions among the cell line groups sharing certain genetic mutations were then analyzed for statistical significance.
Statistical analysis was performed using JMP 13 (SAS Institute Inc. Cary, N.C., USA) or Origin 9 (Origin Lab Corp., Northampton, Mass., USA). All data are represented as mean±standard error of the mean (SEM) and were tested for statistical significance using Mann-Whitney U test or analysis of variance (ANOVA). P-values of <0.05 were interpreted as statistically significant.

NCI-H460 = assay: CellTiter-Glo cell viability, NCI-H460; assay type: cell-based
Procedure: as §1

Molt-4 = assay: CellTiter-Glo cell viability, Molt-4; assay type: cell-based
Procedure: as §1

K-562 = assay: CellTiter-Glo cell viability, K-562; assay type: cell-based
Procedure: as §1

HL-60 = assay: CellTiter-Glo cell viability, HL-60; assay type: cell-based
Procedure: as §1

[1] = 96 h, top conc. 50 μg/mL Zn(II) agent, 100 μM cisplatin

Compound: N.N.[Cl][Pt][Cl] [Cisplatin]
- Absolute IC50 (JJN-3; 96 h, CellTiter-Glo): 0.28 µg/mL
- % inhibition at top conc. (JJN-3; [1]): 99.81%
- HillSlope (JJN-3; 96 h dose-response fit): −1.17
- % inhibition at top conc. (SK-OV-3; [1]): 98.22%
- HillSlope (SK-OV-3; 96 h dose-response fit): −1.68
- Absolute IC50 (HCT-116; 96 h, CellTiter-Glo): 2.89 µg/mL
- % inhibition at top conc. (HCT-116; [1]): 91.19%
- HillSlope (HCT-116; 96 h dose-response fit): −2.03
- Absolute IC50 (KARPAS-422; 96 h, CellTiter-Glo): 0.37 µg/mL
- % inhibition at top conc. (KARPAS-422; [1]): 99.99%
- HillSlope (KARPAS-422; 96 h dose-response fit): −1.04
- Absolute IC50 (DU4475; 96 h, CellTiter-Glo): 0.31 µg/mL
- % inhibition at top conc. (DU4475; [1]): 99.94%
- HillSlope (DU4475; 96 h dose-response fit): −2.54
- Absolute IC50 (PANC-1; 96 h, CellTiter-Glo): 1.08 µg/mL
- % inhibition at top conc. (PANC-1; [1]): 96.35%
- HillSlope (PANC-1; 96 h dose-response fit): −0.62
- Absolute IC50 (MES-SA/DX5; 96 h, CellTiter-Glo): 0.56 µg/mL
- % inhibition at top conc. (MES-SA/DX5; [1]): 99.97%
- HillSlope (MES-SA/DX5; 96 h dose-response fit): −1.75
- Absolute IC50 (CA46; 96 h, CellTiter-Glo): 0.21 µg/mL
- % inhibition at top conc. (CA46; [1]): 99.92%
- HillSlope (CA46; 96 h dose-response fit): −1.96
- Absolute IC50 (OVCAR-3; 96 h, CellTiter-Glo): 1.08 µg/mL
- % inhibition at top conc. (OVCAR-3; [1]): 97.70%
- HillSlope (OVCAR-3; 96 h dose-response fit): −2.96
- Absolute IC50 (Daudi; 96 h, CellTiter-Glo): 0.11 µg/mL
- % inhibition at top conc. (Daudi; [1]): 99.86%
- HillSlope (Daudi; 96 h dose-response fit): −1.59
- effect of CREBBPmt-KRASmt-BRCA1WT combination on sensitivity (50 cancer cell lines): strong resistance
- Absolute IC50 (NCI-H460; 96 h, CellTiter-Glo): 0.15 µg/mL
- % inhibition at top conc. (NCI-H460; [1]): 99.98%
- HillSlope (NCI-H460; 96 h dose-response fit): −1.63
- Absolute IC50 (Molt-4; 96 h, CellTiter-Glo): 0.10 µg/mL
- % inhibition at top conc. (Molt-4; [1]): 99.99%
- HillSlope (Molt-4; 96 h dose-response fit): −2.01
- Absolute IC50 (K-562; 96 h, CellTiter-Glo): 1.02 µg/mL
- % inhibition at top conc. (K-562; [1]): 97.71%
- HillSlope (K-562; 96 h dose-response fit): −1.81
- Absolute IC50 (HL-60; 96 h, CellTiter-Glo): 0.29 µg/mL
- % inhibition at top conc. (HL-60; [1]): 99.99%
- HillSlope (HL-60; 96 h dose-response fit): −2.08
